Read-outs that look alike come from different tables or passages of the source.
Key:
[1] = system: glutathione S-transferase mu isoenzymes; conditions: human isoenzymes; cited from earlier work
glutathione reductase = conditions: cited from earlier work
[2] = system: glutathione S-transferase mu isoenzymes; conditions: rat isoenzymes; cited from earlier work
liver microsomal enzymes = conditions: NADPH-dependent; cited from earlier work
[3] = system: M5076 reticulum cell sarcoma; assay: M5076 reticulum cell sarcoma, sc implanted; format: in vivo, C57BL/6 mice; conditions: iv every fourth day × 3 (same treatment schedule as MeCCNU)
Experimental: (§1) The M5076 reticulum cell sarcoma was passaged biweekly by sc transfer of tumor fragments into C57BL/6 mice, and the M109 lung carcinoma was similarly passaged in BALB/c mice. The LX-1 human lung carcinoma was passaged sc every two to three weeks in BALB/c-background athymic (nu/nu) mice. For use in these systems, compound III was dissolved in: (a) 100% DMSO and administered by iv injection in a fixed volume of 10 microliters; or (b) DMSO diluted with saline to a final concentration of 10% DMSO and administered iv in a volume of 0.01 milliliter/g of body weight. […] Mitomycin C and cyclophosphamide were dissolved and administered in saline. BCNU and MeCCNU were dissolved in ethanol and diluted 1:9 (v/v) with water prior to administration.
(§2) Five mice per group were employed in experiments with the B16F10 melanoma, and 8 mice per group with the M5076 sarcoma, the M109 carcinoma and the LX-1 carcinoma. A minimum of two dose levels per compound were included in each evaluation and drug therapy was initiated 24 h after tumor implantation for the M5076 sarcoma and M109 carcinoma. In the LX-1 experiment, tumor bearing mice were selected and sorted into treatment and control groups on day 6 post-tumor implant such that all tumor weights ranged from 50-100 mg and median tumor weights per group were reasonably similar. Therapeutic results are presented in terms of: (a) increases in lifespan reflected by the relative median survival time (MST) of treated versus control groups (i.e., %T/C values), and by long-term survivors, and (b) primary tumor growth inhibition (i.e., T-C values) determined by calculating the relative median times for treated (T) and control untreated (C) mice to grow tumors of a 0.5 g size for the LX-1 carcinoma or a 1 g size for the murine neoplasms. Tumor weights were interchangeable with tumor size on the basis of 1 mm^3 =1 mg. […] The activity criterion for tumor inhibition was a delay in tumor growth consistent with one log10 cell kill (LCK). The absolute T-C value needed to attain this level of efficacy varied from experiment to experiment and depended upon the tumor volume doubling time of the control mice in each study. Treated mice dying prior to day 10 in the ip M109 experiment, or dying before their tumors achieved 0.5 g for the LX-1 carcinoma or 1 g in size for all other sc tumor models, were considered to have died from drug toxicity. Groups of mice with more than one death due to drug toxicity were not used in the evaluation of antitumor efficacy. Statistical evaluations of data were performed using Gehan's generalized Wilcoxan test (Gehan, Biometrika, 1965, 52, 203-233).
Compound III was also evaluated against the M5076 reticulum cell sarcoma implanted sc. When administered iv at a level of 48 mg/kg per injection in 100% DMSO every other day for five days, compound III cured 6 out of 8 mice and consequently, no median time (T-C value) to reach 1 gram size tumors was expressed for this group. Tumor growth in mice receiving only 100% DMSO was indistinguishable from that of untreated control animals. 1-(2-Chloroethyl)-3-(4-methylcyclohexyl)-1-nitrosourea (MeCCNU) and BCNU were included in this experiment for comparison. The former achieved a maximum %T/C of 128 and a delay in tumor growth of 33.5 days at 16 mg/kg per injection administered iv every fourth day for three total injections, while BCNU, administered iv on the same treatment schedule, produced a %T/C in excess of 157, with 2 out of 8 cures, and a T-C of >62 days (data not shown).

ribonucleotide reductase = conditions: cited from earlier work
[4] = system: LX-1 human lung carcinoma; assay: LX-1 human lung carcinoma xenograft, sc in athymic mice; format: in vivo, human tumor in athymic (nu/nu) mice; conditions: 20 mg/kg per injection (optimum), iv every fourth day × 3
Experimental: as §1, §2
The human lung tumor, LX-1, xenografted sc in athymic mice, was also used to examine the antineoplastic potential of compound III. […]

thioredoxin reductase = conditions: cited from earlier work
[5] = system: NADPH:cytochrome P450 reductase; conditions: cited from earlier work
[6] = system: colon CX-1 human tumor xenografts; conditions: subrenal capsule, athymic mice; cited from earlier work
[7] = system: mammary MX-1 human tumor xenografts; conditions: subrenal capsule, athymic mice; cited from earlier work
L1210 leukemia = L1210 leukemia survival time in mice (ip implanted); format: in vivo, mice (CD2F1)
Experimental: (§3) Leukemia L1210 cells were obtained from the Frederick Cancer Research Facility, Division of Cancer Treatment Tumor Repository of the National Cancer Institute, and were maintained by serial passage in tissue culture. Every 8 weeks, tumor cells were injected intraperitoneally into five donor CD2 F1 mice 8- to 10- weeks of age and were allowed to grow for 7 days. The peritoneal fluid was withdrawn and the suspension was centrifuged for 5 min at 1600 g. The supernatant was decanted and 10^5 cells/mL were seeded into 10 mL of RPMI 1640 medium supplemented with 10% fetal bovine serum and 1% L-glutamine, and once again maintained in culture. To assay for antineoplastic activity, 0.1 mL of the cell suspension containing 10^5 L1210 leukemia cells was injected ip into each recipient mouse. Test compounds were administered over a wide range of dosage levels, beginning 24 h after tumor implantation, and continued once daily for 6 consecutive days. All drugs were administered ip as a solution in 100% dimethylsulfoxide (DMSO), in a volume not exceeding 0.025 mL. […] Mice were weighed during the course of the experiments, and the percentage change in body weight from onset to termination of therapy was used as an indication of drug toxicity. Determination of the sensitivity of neoplasms to these agents was based upon the prolongation of survival time afforded by the drug treatments.
(§4) ^a Administered ip once daily for six consecutive days, beginning 24 hours after tumor implantation, with 5-10 mice being used per group. ^b Average percent change in body weight from onset to termination of therapy. ^c % T/C=average survival time of treated/control mice×100; cures (>60-day survivors) are listed separately and are not included in this calculation.

[8] = Body weight change / toxicity in L1210-bearing mice; format: in vivo, mice (CD2F1); conditions: for Av. Wt. Change %: L1210-bearing mice
Experimental: as §3, §4

B16F10 melanoma = assay: B16F10 melanoma, tumor growth delay in mice; format: in vivo, C57BL/6 mice; conditions: 100% DMSO
Experimental: B16F10 melanoma cells were grown in vitro as monolayers in minimum essential medium with Hank's salts supplemented with 10% fetal bovine serum and 1% 200 mM L-glutamine solution. Solid tumors were produced in C57BL/6 female mice 12- to 14-weeks of age by the intradermal injection in the right flank of each mouse of 0.1 mL of a cell suspension containing 10^6 B16F10 cells/mL from freshly trypsinized cultures. After 10-12 days, animals bearing approximately 100 mm^3 tumors were treated ip with compound III or IV dissolved in 100% DMSO for 6 consecutive days, and tumor volumes were measured on alternate days until reaching 1000 mm^3.
as §2
In addition, both compounds III and IV were evaluated in 100% DMSO against the B16F10 melanoma implanted intradermally (id) in mice (Table III). In an initial experiment, compound IV produced a T-C of 15.5 days at a daily dosage level of 20 mg/kg administered once daily for six consecutive days beginning on day 10 post-implant. In the same experiment, using the same treatment schedule, a growth delay of 11 days was obtained with compound III. […] Thus, the aminocarbonyl component in this class of agents influences the magnitude of the antitumor effects obtained against the B16F10 melanoma.

M109 lung carcinoma [9] = conditions: 60 mg/kg per injection, highest dosage level, ip q4d × 3; different experiment; cited from earlier work
[10] = system: M5076 reticulum cell sarcoma; conditions: compared with compound III or BCNU; cited from earlier work
M109 lung carcinoma [11] = conditions: as reported earlier (J. Med. Chem. 1993, 36, 3496); cited from earlier work
[12] = chloroethylating agent with no carbamoylating activity; cited from earlier work

SMILES: O=NN(CCCl)C(=O)NCCCl [BCNU, 1,3-bis(2-chloroethyl)-1-nitrosourea]
- glutathione-dependent denitrosation (in words) [1]: undergo glutathione-dependent denitrosation
- inhibition of glutathione reductase (in words) (glutathione reductase): inhibit glutathione reductase
- glutathione-dependent denitrosation (in words) [2]: undergo glutathione-dependent denitrosation
- inactivation by denitrosation (in words) (liver microsomal enzymes): inactivated by denitrosation by liver microsomal enzymes
- %T/C [3]: > 157%
- T-C [3]: > 62 days
- cures [3]: 2 out of 8
- inhibition of ribonucleotide reductase (in words) (ribonucleotide reductase): inhibit glutathione reductase, ribonucleotide reductase
- T-C [4]: 11.8 days
- log10 cell kill (LCK) [4]: 1.3 LCK
- inhibition of thioredoxin reductase (in words) (thioredoxin reductase): inhibit glutathione reductase, ribonucleotide reductase and thioredoxin reductase

SMILES: O=NN(CCCl)C(=O)NC1CCCCC1 [CCNU, 1-(2-chloroethyl)-3-cyclohexyl-1-nitrosourea]
- denitrosation (in words) [5]: catalyzed by NADPH:cytochrome P450 reductase

SMILES: CNC(=O)ON(C(C)=O)C(=O)NC [Caracemide]
- antitumor activity (in words) [6]: active
- antitumor activity (in words) [7]: active

SMILES: CNC(=O)N(N(CCCl)S(C)(=O)=O)S(C)(=O)=O [Compound IV, 1,2-Bis(methylsulfonyl)-1-(2-chloroethyl)-2-methylaminocarbonylhydrazine]
- % 60 Day Survivors (cures) (L1210 leukemia; 5 mg/kg ip once daily × 6): 40%
- %T/C (average survival time treated/control × 100) (L1210 leukemia; 5 mg/kg ip once daily × 6, cures not included): 234%
- % 60 Day Survivors (cures) (L1210 leukemia; 10 mg/kg ip once daily × 6): 100%
- % 60 Day Survivors (cures) (L1210 leukemia; 15 mg/kg ip once daily × 6): 100%
- antileukemic activity / therapeutic potential (in words) (L1210 leukemia; qualitative, L1210 leukemia in mice): much better therapeutic potential than the amino acid ester derivatives
- Av. Wt. Change % ([8]; 5 mg/kg ip once daily × 6): +9.9%
- body weight loss (in words) ([8]; 5 mg/kg × 6): no body weight loss
- Av. Wt. Change % ([8]; 10 mg/kg ip once daily × 6): -5.6%
- Av. Wt. Change % ([8]; 15 mg/kg ip once daily × 6): -2.1%
- loss of body weight ([8]; 10 and 15 mg/kg × 6): < 6%
- T-C (B16F10 melanoma; experiment a, 10 mg/kg/injection, qd × 6 from day 10, ip): 5.0 days
- T-C, growth delay (B16F10 melanoma; experiment a, 20 mg/kg/injection, qd × 6 from day 10, ip): 15.5 days
- T-C (B16F10 melanoma; experiment b, 20 mg/kg/injection, qd × 6 from day 12, ip): 10.0 days
- T-C, growth delay (B16F10 melanoma; experiment b, 30 mg/kg/injection, qd × 6 from day 12, ip): 25.5 days

SMILES: CC(=O)N(N(CCCl)S(C)(=O)=O)S(C)(=O)=O [X]
- %T/C (median survival time) (M109 lung carcinoma [9]): 231%
- activity against M5076 (in words) [10]: much less active than compound III or BCNU
- maximum %T/C (M109 lung carcinoma [11]): 136%
- maximum T-C value (M109 lung carcinoma [11]): 14.5 days

SMILES: CS(=O)(=O)CS(=O)(=O)OCCCl [clomesone]
- antineoplastic activity (in words) [12]: excellent antineoplastic activity
